Results published in US10414811B2, “Protease-resistant lipidated GLP-1 analogs” (MEDIMMUNE LIMITED, priority 2015, dated 2019).
pEC50: −log10 of the molar value. Where two headings read alike, the source gives them in different places. Numbered stars: 1 amine (or outer) side, 2 acyl side, 3 side chain; on linkers, the order of the positions; unused ones are H or OH. Square brackets hold non-standard residues; d marks the D form. Side chains are listed from the residue outwards. Peptide text beside a SMILES is read from it. * marks the point of attachment. C18 diacid = O=C(O)CCCCCCCCCCCCCCCCC(=O)*; γGlu = O=C(O)[C@H](CCC(=O)[*:2])N[*:1]; αMeF = C[C@](N)(Cc1ccccc1)C(=O)O; αMeK = C[C@](N)(CCCCN)C(=O)O; αMeS = C[C@](N)(CO)C(=O)O; AEEA = NCCOCCOCC(=O)O; Aib = CC(C)(N)C(=O)O

What was measured:
Assay type in all cases: cell-based
[1] = target: T1, human glucagon receptor (GCGR) (Homo sapiens, UniProt P47871); test: cAMP assay, human GCGR cells; details: cAMP assay
T1 construct: expressed in transfected cells
T1 sequence (P47871 26-477): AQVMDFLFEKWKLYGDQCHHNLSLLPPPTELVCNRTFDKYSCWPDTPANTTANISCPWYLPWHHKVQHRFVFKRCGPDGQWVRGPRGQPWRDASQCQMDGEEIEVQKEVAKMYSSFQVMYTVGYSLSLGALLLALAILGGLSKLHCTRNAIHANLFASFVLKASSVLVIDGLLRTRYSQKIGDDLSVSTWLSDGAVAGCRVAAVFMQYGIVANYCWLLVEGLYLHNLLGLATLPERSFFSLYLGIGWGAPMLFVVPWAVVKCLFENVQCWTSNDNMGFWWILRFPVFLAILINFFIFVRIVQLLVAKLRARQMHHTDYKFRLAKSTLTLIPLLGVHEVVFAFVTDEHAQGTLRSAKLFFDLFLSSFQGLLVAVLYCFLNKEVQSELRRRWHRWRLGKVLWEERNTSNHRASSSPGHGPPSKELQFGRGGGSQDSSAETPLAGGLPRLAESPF
Method in brief: (§1)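 Peptide-stimulated cAMP measured by two-step HTRF after a 30 min room-temperature incubation with receptor-expressing cells (hGLP-1R, hGIPR at 1×10^5 cells/ml; hGCGR at 2×10^5 cells/ml). Duplicate dilutions; EC50 from 4-parameter logistic fit of % Delta F.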

[2] = target: T2, human GLP-1 receptor (GLP-1R) (Homo sapiens, UniProt P43220); test: cAMP assay, human GLP-1R cells; details: for pEC50: cAMP assay; for EC50: mean of n1 and n2, read-out: Mean pM GLP-1R
T2 construct: expressed in transfected cells
T2 sequence (P43220 24-463): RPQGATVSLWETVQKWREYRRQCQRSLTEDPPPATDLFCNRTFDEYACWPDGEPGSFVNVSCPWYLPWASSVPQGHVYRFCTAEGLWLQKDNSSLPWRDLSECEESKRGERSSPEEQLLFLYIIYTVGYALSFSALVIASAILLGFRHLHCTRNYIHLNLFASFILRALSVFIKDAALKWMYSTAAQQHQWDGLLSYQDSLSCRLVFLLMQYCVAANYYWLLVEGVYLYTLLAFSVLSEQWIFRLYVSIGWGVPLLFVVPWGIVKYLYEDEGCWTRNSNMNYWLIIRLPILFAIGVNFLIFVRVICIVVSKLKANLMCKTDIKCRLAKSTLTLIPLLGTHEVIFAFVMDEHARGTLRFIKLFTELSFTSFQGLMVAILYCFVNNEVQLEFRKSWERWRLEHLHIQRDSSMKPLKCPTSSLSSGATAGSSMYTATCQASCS
Method in brief: as §1

[3] = target: T3, human glucose-dependent insulinotropic peptide receptor (GIPR) (Homo sapiens, UniProt P48546); test: cAMP assay, human GIPR cells; details: cAMP assay
T3 construct: expressed in transfected cells
T3 sequence (P48546 22-466): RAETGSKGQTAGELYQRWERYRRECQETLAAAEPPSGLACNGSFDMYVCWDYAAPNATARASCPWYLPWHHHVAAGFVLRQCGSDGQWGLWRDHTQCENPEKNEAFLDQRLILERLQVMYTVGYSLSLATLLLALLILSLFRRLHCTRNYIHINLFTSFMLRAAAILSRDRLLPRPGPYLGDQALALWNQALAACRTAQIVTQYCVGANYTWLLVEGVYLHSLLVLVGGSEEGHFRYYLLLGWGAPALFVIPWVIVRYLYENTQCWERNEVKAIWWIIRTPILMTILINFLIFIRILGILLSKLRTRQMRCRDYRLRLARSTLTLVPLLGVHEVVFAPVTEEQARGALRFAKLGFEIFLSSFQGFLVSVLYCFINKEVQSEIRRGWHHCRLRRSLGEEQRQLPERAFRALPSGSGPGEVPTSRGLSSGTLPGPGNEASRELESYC
Method in brief: as §1

[4] = first determination (n1), read-out: Primary assay EC50 Gluc-R (n1)
[5] = second determination (n2), read-out: Primary assay EC50 Gluc-R (n2)
[6] = first determination (n1), read-out: Primary assay EC50 GLP-1R n1
[7] = second determination (n2), read-out: Primary assay EC50 GLP-1R n2
[8] = first determination (n1), read-out: Primary assay EC50 GIP-R (n1)
[9] = second determination (n2), read-out: Primary assay EC50 GIP-R (n2)

SMILES | pEC50 [1, 4] | pEC50 [1, 5] | pEC50 [2, 6] | pEC50 [2, 7] | EC50 [2] [pM] | pEC50 [3, 8] | pEC50 [3, 9]
CC[C@H](C)[C@H](NC(=O)[C@](C)(Cc1ccccc1)NC(=O)[C@H](CCC(=O)O)NC(=O)[C@](C)(CCCCN)NC(=O)[C@H](C)NC(=O)[C@H](C)NC(=O)[C@H](CCC(=O)O)NC(=O)CNC(=O)[C@H](CCCCNC(=O)COCCOCCNC(=O)COCCOCCNC(=O)CC[C@H](NC(=O)CCCCCCCCCCCCCCCCC(=O)O)C(=O)O)NC(=O)[C@H](CC(C)C)NC(=O)[C@](C)(Cc1ccccc1)NC(=O)[C@H](CO)NC(=O)[C@](C)(CO)NC(=O)[C@@H](NC(=O)[C@H](CC(=O)O)NC(=O)[C@H](CO)NC(=O)[C@@H](NC(=O)[C@](C)(Cc1ccccc1)NC(=O)[C@H](CO)NC(=O)CNC(=O)[C@H](CCC(=O)O)NC(=O)C(C)(C)NC(=O)[C@@H](N)Cc1c[nH]cn1)[C@@H](C)O)C(C)C)C(=O)N[C@@H](C)C(=O)N[C@@](C)(Cc1ccccc1)C(=O)N[C@H](C(=O)N[C@H](C(=O)N[C@@](C)(CCCCN)C(=O)NCC(=O)NCC(N)=O)C(C)C)C(C)C [compound 114] (H-H[Aib]EGS[αMeF]TSDV[αMeS]S[αMeF]LK([AEEA-AEEA-γGlu-C18 diacid])GEAA[αMeK]E[αMeF]IA[αMeF]VV[αMeK]GG-NH2; N-terminus assumed) | ≤ 7.60 | ≤ 7.60 | 9.26 | 9.34 | 503 | ≤ 7.60 | ≤ 7.60
CC[C@H](C)[C@H](NC(=O)[C@](C)(Cc1ccccc1)NC(=O)[C@H](CCC(=O)O)NC(=O)[C@](C)(CCCCN)NC(=O)[C@H](C)NC(=O)[C@H](C)NC(=O)[C@H](CCC(=O)O)NC(=O)CNC(=O)[C@H](CCC(=O)O)NC(=O)[C@H](CC(C)C)NC(=O)[C@](C)(Cc1ccccc1)NC(=O)[C@H](CO)NC(=O)[C@](C)(CO)NC(=O)[C@@H](NC(=O)[C@H](CCCCNC(=O)COCCOCCNC(=O)COCCOCCNC(=O)CC[C@H](NC(=O)CCCCCCCCCCCCCCCCC(=O)O)C(=O)O)NC(=O)[C@H](CO)NC(=O)[C@@H](NC(=O)[C@](C)(Cc1ccccc1)NC(=O)[C@H](CO)NC(=O)CNC(=O)[C@H](CCC(=O)O)NC(=O)C(C)(C)NC(=O)[C@@H](N)Cc1c[nH]cn1)[C@@H](C)O)C(C)C)C(=O)N[C@@H](C)C(=O)N[C@@](C)(Cc1ccccc1)C(=O)N[C@H](C(=O)N[C@H](C(=O)N[C@@](C)(CCCCN)C(=O)NCC(=O)NCC(N)=O)C(C)C)C(C)C [compound 120] (H-H[Aib]EGS[αMeF]TSK([AEEA-AEEA-γGlu-C18 diacid])V[αMeS]S[αMeF]LEGEAA[αMeK]E[αMeF]IA[αMeF]VV[αMeK]GG-NH2) | ≤ 7.60 | ≤ 7.60 | 8.39 | 8.50 | 3640 | ≤ 7.60 | ≤ 7.60
CC[C@H](C)[C@H](NC(=O)[C@](C)(Cc1ccccc1)NC(=O)[C@H](CCC(=O)O)NC(=O)[C@](C)(CCCCN)NC(=O)[C@H](C)NC(=O)[C@H](C)NC(=O)[C@H](CCC(=O)O)NC(=O)CNC(=O)[C@H](CCC(=O)O)NC(=O)[C@H](CC(C)C)NC(=O)[C@](C)(Cc1ccccc1)NC(=O)[C@H](CO)NC(=O)[C@](C)(CO)NC(=O)[C@@H](NC(=O)[C@H](CC(=O)O)NC(=O)[C@H](CO)NC(=O)[C@@H](NC(=O)[C@H](CCCCNC(=O)COCCOCCNC(=O)COCCOCCNC(=O)CC[C@H](NC(=O)CCCCCCCCCCCCCCCCC(=O)O)C(=O)O)NC(=O)[C@H](CO)NC(=O)CNC(=O)[C@H](CCC(=O)O)NC(=O)C(C)(C)NC(=O)[C@@H](N)Cc1c[nH]cn1)[C@@H](C)O)C(C)C)C(=O)N[C@@H](C)C(=O)N[C@@](C)(Cc1ccccc1)C(=O)N[C@H](C(=O)N[C@H](C(=O)N[C@@](C)(CCCCN)C(=O)NCC(=O)NCC(N)=O)C(C)C)C(C)C [compound 123] | ≤ 7.59 | ≤ 7.59 | 8.31 | 8.35 | 4660 | ≤ 7.59 | ≤ 7.59

The next lines start with the values.

pEC50 [1, 4] | pEC50 [1, 5] | pEC50 [2, 6] | pEC50 [2, 7] | EC50 [2] [pM] | pEC50 [3, 8] | pEC50 [3, 9] | SMILES
≤ 7.60 | ≤ 7.60 | ≤ 7.60 | ≤ 7.60 | ≥ 25100 | ≤ 7.60 | ≤ 7.60 | CC[C@H](C)[C@H](NC(=O)[C@](C)(Cc1ccccc1)NC(=O)[C@H](CCC(=O)O)NC(=O)[C@](C)(CCCCN)NC(=O)[C@H](C)NC(=O)[C@H](C)NC(=O)[C@H](CCC(=O)O)NC(=O)CNC(=O)[C@H](CCC(=O)O)NC(=O)[C@H](CC(C)C)NC(=O)[C@](C)(Cc1ccccc1)NC(=O)[C@H](CO)NC(=O)[C@](C)(CO)NC(=O)[C@@H](NC(=O)[C@H](CC(=O)O)NC(=O)[C@H](CO)NC(=O)[C@@H](NC(=O)[C@](C)(Cc1ccccc1)NC(=O)[C@H](CCCCNC(=O)COCCOCCNC(=O)COCCOCCNC(=O)CC[C@H](NC(=O)CCCCCCCCCCCCCCCCC(=O)O)C(=O)O)NC(=O)CNC(=O)[C@H](CCC(=O)O)NC(=O)C(C)(C)NC(=O)[C@@H](N)Cc1c[nH]cn1)[C@@H](C)O)C(C)C)C(=O)N[C@@H](C)C(=O)N[C@@](C)(Cc1ccccc1)C(=O)N[C@H](C(=O)N[C@H](C(=O)N[C@@](C)(CCCCN)C(=O)NCC(=O)NCC(N)=O)C(C)C)C(C)C [compound 124] (H-H[Aib]EGK([AEEA-AEEA-γGlu-C18 diacid])[αMeF]TSDV[αMeS]S[αMeF]LEGEAA[αMeK]E[αMeF]IA[αMeF]VV[αMeK]GG-NH2; N-terminus assumed)
≤ 7.60 | ≤ 7.60 | ≤ 7.60 | ≤ 7.60 | – | ≤ 7.60 | ≤ 7.60 | CC[C@H](C)[C@H](NC(=O)[C@](C)(Cc1ccccc1)NC(=O)[C@H](CCC(=O)O)NC(=O)[C@](C)(CCCCN)NC(=O)[C@H](C)NC(=O)[C@H](C)NC(=O)[C@H](CCC(=O)O)NC(=O)CNC(=O)[C@H](CCC(=O)O)NC(=O)[C@H](CC(C)C)NC(=O)[C@](C)(Cc1ccccc1)NC(=O)[C@H](CO)NC(=O)[C@](C)(CO)NC(=O)[C@@H](NC(=O)[C@H](CC(=O)O)NC(=O)[C@H](CO)NC(=O)[C@@H](NC(=O)[C@](C)(Cc1ccccc1)NC(=O)[C@H](CO)NC(=O)[C@H](CCCCNC(=O)COCCOCCNC(=O)COCCOCCNC(=O)CC[C@H](NC(=O)CCCCCCCCCCCCCCCCC(=O)O)C(=O)O)NC(=O)[C@H](CCC(=O)O)NC(=O)C(C)(C)NC(=O)[C@@H](N)Cc1c[nH]cn1)[C@@H](C)O)C(C)C)C(=O)N[C@@H](C)C(=O)N[C@@](C)(Cc1ccccc1)C(=O)N[C@H](C(=O)N[C@H](C(=O)N[C@@](C)(CCCCN)C(=O)NCC(=O)NCC(N)=O)C(C)C)C(C)C [compound 125] (H-H[Aib]EK([AEEA-AEEA-γGlu-C18 diacid])S[αMeF]TSDV[αMeS]S[αMeF]LEGEAA[αMeK]E[αMeF]IA[αMeF]VV[αMeK]GG-NH2; N-terminus assumed)
≤ 7.60 | ≤ 7.60 | ≤ 7.60 | ≤ 7.60 | ≥ 25400 | ≤ 7.60 | ≤ 7.60 | CC[C@H](C)[C@H](NC(=O)[C@](C)(Cc1ccccc1)NC(=O)[C@H](CCC(=O)O)NC(=O)[C@](C)(CCCCN)NC(=O)[C@H](C)NC(=O)[C@H](C)NC(=O)[C@H](CCC(=O)O)NC(=O)CNC(=O)[C@H](CCC(=O)O)NC(=O)[C@H](CC(C)C)NC(=O)[C@](C)(Cc1ccccc1)NC(=O)[C@H](CO)NC(=O)[C@](C)(CO)NC(=O)[C@@H](NC(=O)[C@H](CC(=O)O)NC(=O)[C@H](CO)NC(=O)[C@@H](NC(=O)[C@](C)(Cc1ccccc1)NC(=O)[C@H](CO)NC(=O)CNC(=O)[C@H](CCCCNC(=O)COCCOCCNC(=O)COCCOCCNC(=O)CC[C@H](NC(=O)CCCCCCCCCCCCCCCCC(=O)O)C(=O)O)NC(=O)C(C)(C)NC(=O)[C@@H](N)Cc1c[nH]cn1)[C@@H](C)O)C(C)C)C(=O)N[C@@H](C)C(=O)N[C@@](C)(Cc1ccccc1)C(=O)N[C@H](C(=O)N[C@H](C(=O)N[C@@](C)(CCCCN)C(=O)NCC(=O)NCC(N)=O)C(C)C)C(C)C [compound 126] (H-H[Aib]K([AEEA-AEEA-γGlu-C18 diacid])GS[αMeF]TSDV[αMeS]S[αMeF]LEGEAA[αMeK]E[αMeF]IA[αMeF]VV[αMeK]GG-NH2; N-terminus assumed)
≤ 7.60 | ≤ 7.60 | ≤ 7.60 | ≤ 7.60 | ≥ 25100 | ≤ 7.60 | ≤ 7.60 | CC[C@H](C)[C@H](NC(=O)[C@](C)(Cc1ccccc1)NC(=O)[C@H](CCC(=O)O)NC(=O)[C@](C)(CCCCN)NC(=O)[C@H](C)NC(=O)[C@H](C)NC(=O)[C@H](CCC(=O)O)NC(=O)CNC(=O)[C@H](CCC(=O)O)NC(=O)[C@H](CC(C)C)NC(=O)[C@](C)(Cc1ccccc1)NC(=O)[C@H](CO)NC(=O)[C@](C)(CO)NC(=O)[C@@H](NC(=O)[C@H](CC(=O)O)NC(=O)[C@H](CO)NC(=O)[C@@H](NC(=O)[C@](C)(Cc1ccccc1)NC(=O)[C@H](CO)NC(=O)CNC(=O)[C@H](CCC(=O)O)NC(=O)[C@H](CCCCNC(=O)COCCOCCNC(=O)COCCOCCNC(=O)CC[C@H](NC(=O)CCCCCCCCCCCCCCCCC(=O)O)C(=O)O)NC(=O)[C@@H](N)Cc1c[nH]cn1)[C@@H](C)O)C(C)C)C(=O)N[C@@H](C)C(=O)N[C@@](C)(Cc1ccccc1)C(=O)N[C@H](C(=O)N[C@H](C(=O)N[C@@](C)(CCCCN)C(=O)NCC(=O)NCC(N)=O)C(C)C)C(C)C [compound 127]
